Test results from patent publication US20240141299A1, “Cofactors FAD and PLP for Promoting Pancreatic Progenitors in Pancreatic Development” (Qatar Foundation for Education, Science and Community …, priority 2022, published 2024).

How the values were obtained:
[1] = biological target: T1, SOX9 HMG domain (Mus musculus, UniProt Q04887); assay: 1D-PAGE in-gel digest and LC-MS/MS of SOX9 HMG domain to identify bound cofactor; type: binding; conditions: purified SOX9 HMG domain; FIG. 2
T1 construct: construct containing HMG and N-terminal domain, 1-173 amino acids; His tag (pET-28a) (N); made in house; host or cells: E. coli BL21(DE3)-RIL
T1 sequence (Q04887 1-173): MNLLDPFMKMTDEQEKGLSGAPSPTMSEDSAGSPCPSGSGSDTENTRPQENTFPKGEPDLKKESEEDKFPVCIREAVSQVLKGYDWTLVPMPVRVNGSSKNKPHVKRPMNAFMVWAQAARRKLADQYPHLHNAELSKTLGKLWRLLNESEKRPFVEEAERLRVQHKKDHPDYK
Description: MS data are analyzed and annotated with Genedata Expressionist software (v.13.0.1) using the Peptide Mapping Tool. The raw MS data are processed using two Genedata modules: Refiner MS for data pre-processing, and Analyst for data post-processing and statistical analyses. Briefly, after noise reduction, LC-MS1 base peaks are detected and their properties calculated (m/z and RT boundaries, m/z and RT center values, intensity). Chromatograms are further aligned based on the RT spectra using a 2 min range. Individual peaks are grouped into clusters and MS/MS data associated to these clusters are annotated with the Peptide Mapping Tool using the FASTA sequence of sp|Q04887|SOX9_MOUSE Transcription factor SOX-9. The search is performed with a peptide tolerance of 0.1 Da, a MS/MS tolerance of 0.01 Da, two allowed missed cleavages, and only annotations with a minimum score of 10 are considered. As variable modifications, the following parameters are applied: carbamidomethyl (C) maximum: 2 per sequence allowed: anywhere, FAD (C), FAD (H), FAD (Y) maximum: 2 per sequence allowed: anywhere, FMN (S), FMN (T) maximum: 2 per sequence allowed: anywhere, pyridoxal phosphate (K) maximum: 2 per sequence allowed: anywhere, and pyridoxal phosphate H2 (K) maximum: 2 per sequence allowed: anywhere.

[2] = test system: hiPSC-derived pancreatic progenitors; assay: Expression of pancreatic developmental markers after cofactor treatment of differentiating hiPSCs (FIG. 5, FIG. 8); type: cell-based, human
Description: Human induced pluripotent stem cells (hiPSCs) are cultured and maintained using mTeSR Plus medium (Stem Cell Technologies, Canada), then plated on 1:50 Matrigel-coated dishes (Corning, USA). Upon reaching 70-80% confluency, cells are differentiated into pancreatic progenitors using a protocol described by Memon et al. (Memon et al. Stem Cell Research and Therapy, 9, Article 15, 2018). Cells are treated with different concentrations of FAD (0.25 μM, 0.5 μM, and 1 μM) (Sigma-Aldrich, Germany) during the four days of pancreatic progenitor stage of in vitro differentiation. The control cells are treated with water.

[3] = test system: hiPSC-derived pancreatic progenitors; assay: Immunostaining of PDX1 and NKX6.1 in FAD-treated pancreatic progenitors; type: cell-based, human; conditions: different FAD concentrations during four days of pancreatic progenitor stage; FIG. 6
Description: (§1) Human induced pluripotent stem cells (hiPSCs) are cultured and maintained using mTeSR Plus medium (Stem Cell Technologies, Canada), then plated on 1:50 Matrigel-coated dishes (Corning, USA). Upon reaching 70-80% confluency, cells are differentiated into pancreatic progenitors using a protocol described by Memon et al. (Memon et al. Stem Cell Research and Therapy, 9, Article 15, 2018). Cells are treated with different concentrations of FAD (0.25 μM, 0.5 μM, and 1 μM) (Sigma-Aldrich, Germany) during the four days of pancreatic progenitor stage of in vitro differentiation. The control cells are treated with water. After the treatment period, cells are fixed and immunostaining is performed using previously reported protocols by Memon et al. Cells are also collected for total protein extraction using Radioimmunoprecipitation Assay (RIPA) lysis buffer and are normalized to 20 ng/μL before SDS-PAGE separation. Nitrocellulose membranes are blocked using 15% skimmed milk in 0.5% tris-buffered saline (TBST). Membranes are then incubated with primary antibodies overnight at 4° C. Membranes are washed with 0.5% TBST and secondary antibodies are added for 1 hour at room temperature. Membranes are developed using SuperSignal West Pico Chemiluminescent substrate (Pierce, Loughborough, UK) and are then visualized using iBright™ CL 1000 Imaging System (Invitrogen).

[4] = test system: hiPSC-derived pancreatic progenitors; assay: Western blotting of transcription factors in FAD-treated pancreatic progenitors; type: cell-based, human; conditions: FIG. 7
Description: as §1

[5] = biological target: T2, SOX2 HMG domain (Homo sapiens, UniProt P48431); assay: UV-visible absorbance spectroscopy of purified SOX2 HMG domain for bound cofactor; type: binding; conditions: purified SOX2 HMG domain from bacterial expression
T2 construct: made in house

[6] = biological target: T1, SOX9 HMG domain; assay: UV-visible absorbance spectroscopy of purified SOX9 HMG domain for bound cofactor; type: binding; conditions: purified SOX9 HMG domain from bacterial expression; FIG. 1E
Description: Purified SOX9 proteins of 2-4 mg/ml concentration are used for reading the absorbance of bind cofactors. The UV-Vis spectra are obtained on a UV-Vis spectrophotometer BMS (Biotechnology Medical Science) UV-1602, scanning from 300 nm to 800 nm. The baseline is corrected with the buffer used to prepare the protein samples.

T2 sequence (P48431 41-109 limits assumed): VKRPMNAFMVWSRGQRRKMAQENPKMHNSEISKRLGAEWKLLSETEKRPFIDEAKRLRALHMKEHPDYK

Structure (SMILES) | cofactor binding detected by LC-MS/MS peaks [1] | expression of NGN3 ([2]; about 4 μM-8 μM PLP, FIG. 8B) | expression of PTF1a ([2]; about 4 μM-8 μM PLP, FIG. 8B) | co-expression of PDX1 and NKX6.1 (efficiency of pancreatic progenitor differentiation) [3] | PTF1a level (exocrine marker) ([4]; 0.5 μM and 1 μM FAD) | SOX9 level ([4]; FAD 0.25 μM, 0.5 μM, 1 μM, four days of pancreatic progenitor stage) | absorbance peak at approximately 420 nm (FAD-bound protein) [5] | relative changes in NGN3 and NKX6.1 ([2]; FAD added to early stage differentiation, FIG. 5) | expression of NGN3 ([2]; about 0.5 μM FAD, FIG. 8A) | absorbance peak at approximately 420 nm (FAD-bound protein) [6]
Cc1cc2nc3c(=O)[nH]c(=O)nc-3n(C[C@H](O)[C@H](O)[C@H](O)COP(=O)(O)O)c2cc1C [FMN, Flavin Mononucleotide] | suggestive of FAD, FMN and PLP binding | – | – | – | – | – | – | – | – | –
Cc1ncc(COP(=O)(O)O)c(C=O)c1O [PLP, Pyridoxal 5′-phosphate] | suggestive of FAD, FMN and PLP binding | high expression of NGN3 | appearance of PTF1a | – | – | – | – | – | – | –
Cc1cc2nc3c(=O)[nH]c(=O)nc-3n(C[C@H](O)[C@H](O)[C@H](O)COP(=O)(O)OP(=O)(O)OC[C@H]3O[C@@H](n4cnc5c(N)ncnc54)[C@H](O)[C@@H]3O)c2cc1C [FAD, Flavin Adenine Dinucleotide] | suggestive of FAD, FMN and PLP binding | – | – | most of the pancreatic progenitor cells co-expressed PDX1 and NKX6.1 | increased | increases gradually with increased FAD concentrations | no obvious peak | appears to increase pancreatic developmental factors | along with NGN3 | peak at approximately 420 nm characteristic of an FAD-bound protein
